Test results as given in patent US10093675B2, “6,8-disubstituted-9-(heterocyclyl)purines, compositions containing these derivatives and their use in cosmetic and medicinal applications” (USTAV EXPERIMENTALNI BOTANIKY AV CR, V.V.I., priority 2014, dated 2018).

Legend:
[1] = system: detached leaves of Triticum aestivum cv. Hereward; assay: Membrane lipid peroxidation (MDA, TBA method) in detached wheat leaves during dark senescence; assay type: in vivo; conditions: four days in the dark, Control 18.9 (±2.2)
Procedure: A typical symptom associated with senescence as a direct consequence of increased reactive oxygen species is lipid peroxidation. Therefore the levels of MDA, a decomposition product of lipid peroxidation, were measured in detached wheat leaves that were exposed to the prepared novel derivatives and kinetin for four days in the dark as described in Example 8. MDA levels were measured using a thiobarbituric acid (TBA) method. In detail, 100 mg of fresh plant material was homogenized by high speed shaking in a ball mill (MM301, Retsch, Germany) with 1 mL of 80% methanol. The crude extract was centrifuged at 10,000×g for 5 min, and 100 μL aliquot of supernatant was vortexed with 100 μL of 0.5% (w/v) TBA containing 0.1% (w/v) trichloroacetic acid, and the resulting solution was then incubated for 30 min at 95° C. The samples were quickly cooled on ice and recentrifuged for 5 min at 1000×g. The absorbance of supernatant was measured at 532 nm with background subtraction at 600 nm and the amount of MDA-TBA complex was calculated from the coefficient of absorbance 155 mM^−1cm^−1.
Seeds of winter wheat, Triticum aestivum cv. Hereward, were washed under running water for 24 hours and then sown on vermiculite soaked with Knop's solution. They were placed in the grown chamber at 25° C. with a 16/8 hours light period at […]. After 7 days, the first leaf was fully developed and the second leaf had started to grow. A tip section of the first leaf, approximately 35 mm long, was removed from 5 seedlings and trimmed slightly to a combined weight of 100 mg. The basal ends of the five leaf tips were placed in the wells of a microtiter polystyrene plate containing […] of a cytokinin solution each. The entire plate was inserted into a plastic box lined with paper tissues soaked in distilled water to prevent leaf sections from drying out. After 96 hours incubation in the dark at 25° C., the leaves were removed and chlorophyll extracted by heating at 80 C for 10 min in 5 ml of 80% ethanol (v/v). The sample volume was then restored to 5 ml by the addition of 80% ethanol (v/v). The absorbance of the extract was recorded at 665 nm. In addition, chlorophyll extracts from fresh leaves and leaf tips incubated in deionized water were measured. From the obtained data, the concentration with highest activity was selected for each compound tested. Relative activity of the compound at this concentration was calculated (see Table 6 below). The activity obtained for 10^−4 M kinetin (Kin) was set as 100%. The values shown are means of five replicates and the whole experiment was repeated twice.

[2] = Radical scavenging activity determined by ORAC (Oxygen Radical Absorbance Capacity); assay type: biochemical; conditions: Mean ± SD (n = 3); net area under the curve relative to trolox, equimolar basis
Procedure: The ability of compounds to scavenge free radicals in vitro was determined by Oxygen Radical Absorbance Capacity (ORAC) method. Fluorescein (100 μL, […]) and 25 μL of compound solution were added into each working well in a 96-well microplate preincubated at 37° C. Thereafter, 25 μL of 250 mM AAPH was quickly added, microplate was shaken for 5 s and the fluorescence (Ex. 485 nm, Em. 510 nm) was read every 3 min over 90 min by using microplate reader Infinite 200 (TECAN, Switzerland). The net area under the curve was used to express antioxidant activity relative to trolox which was used as a standard.

C. elegans fem-1(hc17) = assay: Lifespan of C. elegans; assay type: in vivo; conditions: 100 microM, treated from 4th day of adulthood; DMSO vehiculum 12.98
From the text: C. elegans is a standard model of aging. Its relevance for human aging is generally accepted based primarily on molecular similarity in aging mechanisms and evolutionary conservation of several pathways related to health- and life-span including insulin/IGF-I signaling. (Olsen et. al 2006, doi: 10.1196/annals.1354.015) It is used for drug screening campaigns (reviewed e.g. in Kaletta et al. 2006, doi: 10.1038/nrd2031) including those searching for compounds with cytoprotective activity. Compounds with a life-span extending effect in C. elegans and known health benefits in human include resveratrol, ECG and curcumin (Liao et, al 2011, doi: 10.1016/j.mad.2011.07.008; Wood et al. 2004, doi: 10.1038/nature02789; Abbas et al. 2009, doi: 10.1055/s-0028-1088378). The strain used in this experiment was fem-1(hc17). When grown at 25° C. all animals develop into females which prevents further reproduction and contamination of experiment with progeny. Age-synchronized adults (obtained by sodium hypochlorite treatment) were maintained in liquid S-complete medium. […] Living worms (i.e those moving when exposed to intensive light) were counted in a microscope every 2-3 days until the worms reached 22nd day of adulthood. The effects of the compounds on worm life-span were evaluated in software OASIS (Yang et al 2011, doi: 10.1371/journal.pone.002352).

[3] = system: human diploid fibroblasts (HDF cells; HDF25, HDF45, HDF80); assay: Inhibition of human cell aging: senescent cells by beta-galactosidase staining; assay type: cell-based; conditions: for SENESCENT CELLS (%) HDF25: human diploid fibroblasts passage 25, beta-galactosidase staining; for SENESCENT CELLS (%) HDF45: human diploid fibroblasts passage 45, beta-galactosidase staining; for SENESCENT CELLS (%) HDF80: human diploid fibroblasts passage 80, beta-galactosidase staining
Procedure: In this example, human diploid fibroblasts (HDF cells of various passage levels: passage 25—designated HDF25; passage 45—designated HDF45; passage 80—designated HDF80) were stained for beta-galactosidase activity. The medium used for the cell cultivation was removed the cells were washed twice in […], and fixed in 2-3 ml of fixing solution comprised of a 2% formaldehyde and 0.2% glutaraldehyde in PBS. The cells were incubated at room temperature for 5 minutes, and then washed twice with PBS. The cells were subsequently incubated at 37° C. […] In this experiment, senescent cells, but no other cells were stained blue due to the action of beta-galactosidase on the substrate.

Compound: C=CCNc1nc2c(NCc3ccco3)ncnc2n1C1CCCCO1 (centres unmarked) [Compound 100, 8-Allylamino-6-furfurylamino-9-(tetrahydropyran-2-yl)-9H-purine]
- MDA (nmol/g FW) [1]: 10.2 (±1.1) nmol/g FW
- ORAC (compound/trolox ratio) [2]: 32.4 ± 3.2

Compound: OCCNc1nc2c(NCc3ccco3)ncnc2n1C1CCCCO1 (centres unmarked) [Compound 181, 6-Furfurylamino-8-(2-hydroxyethylamino)-9-(tetrahydropyran-2-yl)-9H-purine]
- MDA (nmol/g FW) [1]: 9.5 (±0.5) nmol/g FW
- ORAC (compound/trolox ratio) [2]: 78.1 ± 3.9

Compound: NCCNc1nc2c(NCc3ccco3)ncnc2n1C1CCCCO1 (centres unmarked) [Compound 170, 8-(2-Aminoethylamino)-6-furfurylamino-9-(tetrahydropyran-2-yl)-9H-purine]
- MDA (nmol/g FW) [1]: 10.4 (±0.7) nmol/g FW
- ORAC (compound/trolox ratio) [2]: 181.3 ± 5.2

Compound: CN(C)c1nc2c(NCc3ccco3)ncnc2n1C1CCCCO1 (centres unmarked) [Compound 80, 6-Furfurylamino-8-dimethylamino-9-(tetrahydropyran-2-yl)-9H-purine]
- MDA (nmol/g FW) [1]: 11.3 (±0.9) nmol/g FW
- ORAC (compound/trolox ratio) [2]: 2.2 ± 0.1

Compound: Ic1nc2c(NCc3ccccc3)ncnc2n1C1CCCCO1 (centres unmarked) [Compound 46, 8-Iodo-6-benzylamino-9-(tetrahydropyran-2-yl)-9H-purine]
- MDA (nmol/g FW) [1]: 10.9 (±1.0) nmol/g FW
- ORAC (compound/trolox ratio) [2]: 1.4 ± 0.0

Compound: c1ccc(CNc2ncnc3nc[nH]c23)cc1 [6-benzylaminopurine, reference compound]
- restricted mean of life-span (C. elegans fem-1(hc17)): 12.95
- SENESCENT CELLS (%) HDF25 [3]: 5%
- SENESCENT CELLS (%) HDF45 [3]: 9%
- SENESCENT CELLS (%) HDF80 [3]: 45%

Compound: c1coc(CNc2ncnc3c2ncn3C2CCCCO2)c1 (centres unmarked) [KTHP, kinetin-9-tetrahydropyranyl, reference compound]
- ORAC (compound/trolox ratio) [2]: 0.6 ± 0.1
- SENESCENT CELLS (%) HDF25 [3]: 3%
- SENESCENT CELLS (%) HDF45 [3]: 4%
- SENESCENT CELLS (%) HDF80 [3]: 26%

Compound: CC(C)=CCNc1ncnc2c1nc(NCCN)n2C1CCCCO1 (centres unmarked) [Compound 172, 8-(2-Aminoethylamino)-6-(3-methylbut-2-en-1-ylamino)-9-(tetrahydropyran-2-yl)-9H-purine]
- MDA (nmol/g FW) [1]: 10.8 (±0.9) nmol/g FW
- ORAC (compound/trolox ratio) [2]: 28.3 ± 1.6

Compound: OCCCNc1nc2c(NCc3ccco3)ncnc2n1C1CCCCO1 (centres unmarked) [Compound 185, 6-Furfurylamino-8-(3-hydroxypropylamino)-9-(tetrahydropyran-2-yl)-9H-purine]
- MDA (nmol/g FW) [1]: 10.2 (±1.1) nmol/g FW
- ORAC (compound/trolox ratio) [2]: 48.3 ± 2.3

Compound: CC(C)=CCNc1nc(Cl)nc2c1nc(N)n2C1CCCCO1 (centres unmarked) [Compound 107, 8-Amino-6-(3-methylbut-2-en-1-ylamino)-chloro-9-(tetrahydropyran-2-yl)-9H-purine]
- MDA (nmol/g FW) [1]: 10.5 (±0.5) nmol/g FW
- ORAC (compound/trolox ratio) [2]: 24.4 ± 1.5

Compound: Nc1nc2c(NCc3ccco3)ncnc2n1C1CCCCO1 (centres unmarked) [Compound 102, 6-furfurylamino-8-amino-9-(tetrahydropyran-2-yl)-9H-purine]
- MDA (nmol/g FW) [1]: 10.4 (±0.9) nmol/g FW
- ORAC (compound/trolox ratio) [2]: 4.5 ± 0.1
